# pIC50: −log10 of the molar value.
# Tests used:
# in vitro [1] = details: human
# Streptococcus pneumoniae = experiment: Antibacterial activity against Streptococcus pneumoniae assessed as inhibition of visible growth incubated for 20 to 24 hrs by microbroth serial dilution assay; type: functional; details: time 20-24 hrs, read-out: MIC100
# in vitro [2] = details: human; remark: listed apart in the source
# MDCK-MDR1 = experiment: Cytotoxicity against MDCKII-MDR1 cells assessed as cell viability at 100 uM measured by MTT assay; type: toxicity, cell-based, Canis lupus familiaris; details: dog, mdck-mdr1, 100 µM
# Staphylococcus aureus [3] = experiment: Antibacterial activity against multi drug-resistant Staphylococcus aureus USA300 FPR3757 assessed as inhibition of visible growth incubated for 20 to 24 hrs by microbroth serial dilution assay; type: functional; details: time 20-24 hrs, read-out: MIC100
# [4] = Inhibition of P-gp efflux in MDCKII-MDR1 cells using calcein-AM as substrate assessed as intracellular calcein fluorescence preincubated for 15 mins followed by substrate addition and measured by fluorescence based assay; type: cell-based; details: Canis lupus familiaris
# Enterococcus faecium [5] = experiment: Antibacterial activity against Vancomycin-resistant Enterococcus faecium assessed as inhibition of visible growth incubated for 20 to 24 hrs by microbroth serial dilution assay; type: functional; details: time 20-24 hrs, read-out: MIC100
# Enterococcus faecium [6] = experiment: Antibacterial activity against Linezolid/Ampicillin/ciprofloxacin/Vancomycin-resistant Enterococcus faecium assessed as inhibition of visible growth incubated for 20 to 24 hrs by microbroth serial dilution assay; type: functional; details: time 20-24 hrs, read-out: MIC100
# [7] = Solubility of the compound in Dulbecco's PBS at 20 degree C measured after 24 hrs
# in vitro [8] = details: mouse
# Enterococcus faecalis = experiment: Antibacterial activity against Enterococcus faecalis assessed as inhibition of visible growth incubated for 20 to 24 hrs by microbroth serial dilution assay; type: functional; details: time 20-24 hrs, read-out: MIC100
# in vitro [9] = details: mouse; remark: listed apart in the source
# in vitro [10] = details: pig, microsomes
# in vitro [11] = details: pig, microsomes; remark: listed apart in the source
# Staphylococcus aureus [12] = experiment: (§1) Induction of resistant development in linezolid 5 passages resistance developed Staphylococcus aureus USA300 FPR3757 assessed as fold increase in MIC at sub-MIC concentration measured after 25 passages with conjugate by serial passage assay; type: functional
# Staphylococcus aureus [13] = experiment: (§2) Induction of resistant development in linezolid 5 passages resistance developed Staphylococcus aureus USA300 FPR3757 assessed as fold increase in MIC at sub-MIC concentration measured after 5 passages with conjugate by serial passage assay; type: functional
# Staphylococcus aureus [14] = experiment: (§3) Induction of resistant development in lefamulin 5 passages resistance developed Staphylococcus aureus USA300 FPR3757 assessed as fold increase in MIC at sub-MIC concentration measured after 22 passages with conjugate by serial passage assay; type: functional
# Staphylococcus aureus [15] = experiment: as §2, with “in -(6-(6-(Piperazin-1-y1)-9H-purin-9-y)methyl)pyridin-3-y1)-1H-1,2,3-triazol-1-yl)-22-deoxypleuromutilin-16” for “in linezolid 5”, “after 18” for “after 5”; type: functional
# Staphylococcus aureus [16] = experiment: (§4) Induction of resistant development in linezolid 5 passages resistance developed Staphylococcus aureus USA300 FPR3757 assessed as fold increase in MIC at sub-MIC concentration measured after 13 passages with conjugate by serial passage assay; type: functional
# Staphylococcus aureus [17] = experiment: Induction of resistant development in lefamulin 5 passages resistance developed Staphylococcus aureus USA300 FPR3757 assessed as fold increase in MIC at sub-MIC concentration measured after 25 passages with conjugate by serial passage assay; type: functional
# Staphylococcus aureus [18] = experiment: (§5) Induction of resistant development in lefamulin 5 passages resistance developed Staphylococcus aureus USA300 FPR3757 assessed as fold increase in MIC at sub-MIC concentration measured after 9 passages with conjugate by serial passage assay; type: functional
# Staphylococcus aureus [19] = experiment: Induction of resistant development in lefamulin 5 passages resistance developed Staphylococcus aureus USA300 FPR3757 assessed as fold increase in MIC at sub-MIC concentration measured after 18 passages with conjugate by serial passage assay; type: functional
# Staphylococcus aureus [20] = experiment: as §2, with “in -(6-(6-(Piperazin-1-y1)-9H-purin-9-y)methyl)pyridin-3-y1)-1H-1,2,3-triazol-1-yl)-22-deoxypleuromutilin-16” for “in linezolid 5”, “after 28” for “after 5”; type: functional
# Staphylococcus aureus [21] = experiment: Induction of resistant development in lefamulin 5 passages resistance developed Staphylococcus aureus USA300 FPR3757 assessed as fold increase in MIC at sub-MIC concentration measured after 5 passages with conjugate by serial passage assay; type: functional
# Staphylococcus aureus [22] = experiment: as §3, with “-(6-(6-(Piperazin-1-y1)-9H-purin-9-y)methyl)pyridin-3-y1)-1H-1,2,3-triazol-1-yl)-22-deoxypleuromutilin-16” for “lefamulin 5”; type: functional
# Staphylococcus aureus [23] = experiment: as §5, with “-(6-(6-(Piperazin-1-y1)-9H-purin-9-y)methyl)pyridin-3-y1)-1H-1,2,3-triazol-1-yl)-22-deoxypleuromutilin-16” for “lefamulin 5”; type: functional
# Staphylococcus aureus [24] = experiment: as §2, with “-(6-(6-(Piperazin-1-y1)-9H-purin-9-y)methyl)pyridin-3-y1)-1H-1,2,3-triazol-1-yl)-22-deoxypleuromutilin-16” for “linezolid 5”; type: functional
# Staphylococcus aureus [25] = experiment: Induction of resistant development in linezolid 5 passages resistance developed Staphylococcus aureus USA300 FPR3757 assessed as fold increase in MIC at sub-MIC concentration measured after 22 passages with conjugate by serial passage assay; type: functional
# Staphylococcus aureus [26] = experiment: Induction of resistant development in linezolid 5 passages resistance developed Staphylococcus aureus USA300 FPR3757 assessed as fold increase in MIC at sub-MIC concentration measured after 9 passages with conjugate by serial passage assay; type: functional
# Staphylococcus aureus [27] = experiment: as §1, with “-(6-(6-(Piperazin-1-y1)-9H-purin-9-y)methyl)pyridin-3-y1)-1H-1,2,3-triazol-1-yl)-22-deoxypleuromutilin-16” for “linezolid 5”; type: functional
# Staphylococcus aureus [28] = experiment: as §4, with “-(6-(6-(Piperazin-1-y1)-9H-purin-9-y)methyl)pyridin-3-y1)-1H-1,2,3-triazol-1-yl)-22-deoxypleuromutilin-16” for “linezolid 5”; type: functional
# Staphylococcus aureus [29] = experiment: Induction of resistant development in linezolid 5 passages resistance developed Staphylococcus aureus USA300 FPR3757 assessed as fold increase in MIC at sub-MIC concentration measured after 18 passages with conjugate by serial passage assay; type: functional
# Staphylococcus aureus [30] = experiment: Induction of resistant development in lefamulin 5 passages resistance developed Staphylococcus aureus USA300 FPR3757 assessed as fold increase in MIC at sub-MIC concentration measured after 13 passages with conjugate by serial passage assay; type: functional
# Staphylococcus aureus [31] = experiment: Induction of resistant development in lefamulin 5 passages resistance developed Staphylococcus aureus USA300 FPR3757 assessed as fold increase in MIC at sub-MIC concentration measured after 28 passages with conjugate by serial passage assay; type: functional
# Staphylococcus aureus [32] = experiment: Induction of resistant development in linezolid 5 passages resistance developed Staphylococcus aureus USA300 FPR3757 assessed as fold increase in MIC at sub-MIC concentration measured after 28 passages with conjugate by serial passage assay; type: functional
smiles,measurement,setting,value
C=C[C@]1(C)C[C@@H](OC(=O)Cn2cc(-c3ccc(Cn4cnc5c(N)ncnc54)c(O)c3)nn2)[C@]2(C)[C@H](C)CC[C@]3(CCC(=O)[C@H]32)[C@@H](C)[C@@H]1O,"CLint scaled at 0.5 h, 1 µM",in vitro [1]; liver microsomes,5290 mL/min/kg
same,MIC,Streptococcus pneumoniae,0.25 µg/mL
same,"half-life at 0.5 h, 1 µM",in vitro [2]; liver microsomes,1.2 min
same,Activity,MDCK-MDR1,Non-Toxic
same,MIC,Staphylococcus aureus [3],0.03 µg/mL
same,pIC50,[4],< 4.00
same,MIC,Enterococcus faecium [5],0.25 µg/mL
same,MIC,Enterococcus faecium [6],0.25 µg/mL
same,solubility at 24 h,[7],2.5 µM
same,"half-life at 0.5 h, 1 µM",in vitro [8]; liver microsomes,0.56 min
same,MIC,Enterococcus faecalis,0.25 µg/mL
same,"CLint scaled at 0.5 h, 1 µM",in vitro [9]; liver microsomes,9770 mL/min/kg
O=C(O)Cc1ccccc1Nc1c(Cl)cccc1Cl [DICLOFENAC],"CLint scaled at 0.5 h, 1 µM",in vitro [1]; microsomes,332 mL/min/kg
same,"half-life at 0.5 h, 1 µM",in vitro [2]; microsomes,18.8 min
same,"CLint scaled at 0.5 h, 1 µM",in vitro [10],145 mL/min/kg
same,"half-life at 0.5 h, 1 µM",in vitro [11],37.9 min
same,"half-life at 0.5 h, 1 µM",in vitro [8]; microsomes,51.7 min
same,"CLint scaled at 0.5 h, 1 µM",in vitro [9]; microsomes,106 mL/min/kg
C=C[C@]1(C)C[C@@H](OC(=O)Cn2cc(-c3ccc(Cn4cnc5c(N6CCNCC6)ncnc54)cc3)nn2)[C@]2(C)[C@H](C)CC[C@]3(CCC(=O)[C@H]32)[C@@H](C)[C@@H]1O,MIC,Streptococcus pneumoniae,0.25 µg/mL
same,MIC,Staphylococcus aureus [3],0.25 µg/mL
same,pIC50,[4],5.00
same,MIC,Enterococcus faecium [5],0.06 µg/mL
same,MIC,Enterococcus faecium [6],0.12 µg/mL
same,solubility at 24 h,[7],31 µM
same,MIC,Enterococcus faecalis,0.25 µg/mL
C=C[C@]1(C)C[C@@H](OC(=O)Cn2cc(-c3ccc([C@H](C)n4cnc5c(N6CCNCC6)ncnc54)cc3)nn2)[C@]2(C)[C@H](C)CC[C@]3(CCC(=O)[C@H]32)[C@@H](C)[C@@H]1O,MIC,Streptococcus pneumoniae,0.5 µg/mL
same,MIC,Staphylococcus aureus [3],0.5 µg/mL
same,MIC,Enterococcus faecium [5],0.5 µg/mL
same,MIC,Enterococcus faecium [6],0.5 µg/mL
same,MIC,Enterococcus faecalis,0.5 µg/mL
CC(=O)NC[C@H]1CN(c2ccc(N3CCOCC3)c(F)c2)C(=O)O1,fold change (FC),Staphylococcus aureus [12],32
same,fold change (FC),Staphylococcus aureus [13],4
same,fold change (FC),Staphylococcus aureus [14],2
same,fold change (FC),Staphylococcus aureus [15],4
same,fold change (FC),Staphylococcus aureus [16],8
same,fold change (FC),Staphylococcus aureus [17],2
same,fold change (FC),Staphylococcus aureus [18],2
same,fold change (FC),Staphylococcus aureus [19],2
same,fold change (FC),Staphylococcus aureus [20],16
same,fold change (FC),Staphylococcus aureus [21],8
same,fold change (FC),Staphylococcus aureus [22],8
same,fold change (FC),Staphylococcus aureus [23],4
same,fold change (FC),Staphylococcus aureus [24],8
same,fold change (FC),Staphylococcus aureus [25],32
same,fold change (FC),Staphylococcus aureus [26],4
same,fold change (FC),Staphylococcus aureus [27],8
same,fold change (FC),Staphylococcus aureus [28],4
same,fold change (FC),Staphylococcus aureus [29],16
same,fold change (FC),Staphylococcus aureus [30],4
same,fold change (FC),Staphylococcus aureus [31],2
same,fold change (FC),Staphylococcus aureus [32],32
C=C[C@]1(C)C[C@@H](OC(=O)Cn2cc(-c3ccc([C@H](C)n4cnc5c(N)ncnc54)cc3)nn2)[C@]2(C)[C@H](C)CC[C@]3(CCC(=O)[C@H]32)[C@@H](C)[C@@H]1O,MIC,Streptococcus pneumoniae,1 µg/mL
same,MIC,Staphylococcus aureus [3],0.12 µg/mL
same,pIC50,[4],4.09
same,MIC,Enterococcus faecium [5],0.5 µg/mL
same,MIC,Enterococcus faecium [6],0.5 µg/mL
same,MIC,Enterococcus faecalis,1 µg/mL

# — ChEMBL document CHEMBL5518206, “Hit-to-Lead Identification and Validation of a Triaromatic Pleuromutilin Antibiotic Candidate” (J Med Chem, 2024)
